No end group written: not given here.
Assays:
Experiment in all cases: biochemical
DRB1*1101 = DRB1*1101 (Homo sapiens, UniProt P01903+P01911, A100R/A169T/A87E/I96F/K41T/L162R/M171V/P40S/Q125H/Q178H/Q39Y/Q99D/R42S/S66Y/T262R/V115G/W38E); details: Binding affinity DRB1 *1101
DRB1*1501 = DRB1*1501 (Homo sapiens, UniProt P01903+P01911); type: binding
DRB4*0101 = DRB4*0101 (Homo sapiens, UniProt P01903+P13762, G164S); type: binding
DR7 (DRB1*0701) = DR7 (DRB1*0701) (Homo sapiens, UniProt P01903+P01911, A100R/A102G/A103Q/D57E/D86V/E43K/F76Y/K127E/L162R/M171V/P40G/Q125H/Q99D/R33Q/R42Y/R54Q/S133A/S66F/T210M/V115G/Y107V/Y59L/Y89S); type: binding
DRB1*0901 = DRB1*0901 (Homo sapiens, UniProt P01903+P01911, A100R/A103E/D57H/D86V/F55Y/F60I/F76Y/I96F/K127E/L162R/M171V/P40D/Q125H/Q99R/R33Q/R42F/S133A/S66N/T210M/V115G/W38K/Y107V/Y59G/Y89S); type: binding
DR4w4 (DRB1*0401) = DR4w4 (DRB1*0401) (Homo sapiens, UniProt P01903+P01911, A100K/A169T/F76Y/I96L/K127E/L162R/M171V/N62H/P40V/Q125Y/R42H/S133A/S149N/S66Y/V115G/V209L/W38E); type: binding
DRB1*0405 = DRB1*0405 (Homo sapiens, UniProt P01903+P01911, A100R/A169T/D86S/F76Y/I96L/K127E/L162R/M171V/N62H/P40V/Q125Y/R42H/S133A/S149N/S66Y/V115G/V209L/W38E); type: binding
DRB1*0802 = DRB1*0802 (Homo sapiens, UniProt P01903+P01911, A100R/A103L/A169T/F76Y/H45Y/I96F/K41T/L162R/M171V/P40S/Q125H/Q178H/Q39Y/Q99D/R218S/R42G/S66Y/V115G/W38E); type: binding
DRB1*1201 = DRB1*1201 (Homo sapiens, UniProt P01903+P01911, A100R/A169T/D57E/D86V/F55L/H45Y/K41T/L162R/M171V/P40S/Q125H/Q178H/Q39Y/Q99D/R42G/S66L/T262R/V114A/V67L/W38E/Y59H/Y61H/Y89S); type: binding
DRB1*1302 = DRB1*1302 (Homo sapiens, UniProt P01903+P01911, A100E/A169T/K41T/L162R/M171V/P40S/Q125H/Q178H/Q39Y/Q99D/R42S/S66N/T262R/V115G/W38E/Y61H); type: binding
DRB5*0101 = DRB5*0101 (Homo sapiens, UniProt P01903+Q30154); details: Binding affinity DRB5 *0101
DRB1*0301 = DRB1*0301 (Homo sapiens, UniProt P01903+P01911, A100K/A102G/A103R/A169T/F55Y/I96L/K41T/L162R/M171V/P40S/Q125H/Q178H/Q39Y/R42S/S66N/T106N/T262R/W38E/Y61H); type: binding
DR1 (DRB1*0101) = DR1 (DRB1*0101) (Homo sapiens, UniProt P01903+P01911, A100R/D57E/F55L/F60I/F76Y/I96L/L162R/M171V/P40L/Q125E/R42F/V115G/Y59C); type: binding

DRB1*0301, sequence (P01903 26-254 limits assumed, other chains not shown): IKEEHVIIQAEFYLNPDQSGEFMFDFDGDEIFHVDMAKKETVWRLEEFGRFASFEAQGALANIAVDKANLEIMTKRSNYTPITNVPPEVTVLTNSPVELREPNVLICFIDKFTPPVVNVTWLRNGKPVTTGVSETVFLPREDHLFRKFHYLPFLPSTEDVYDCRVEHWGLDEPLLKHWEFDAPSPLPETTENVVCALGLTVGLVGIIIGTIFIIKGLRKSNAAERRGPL
DRB1*1302, sequence (P01903 26-254 limits assumed, other chains not shown): as above
DRB1*1101, sequence (P01903 26-254 limits assumed, other chains not shown): as above

Compound	IC50 (DRB1*1101) [µM]	IC50 (DRB1*1501) [µM]	IC50 (DRB4*0101) [µM]	IC50 (DR7 (DRB1*0701)) [µM]	IC50 (DRB1*0901) [µM]	IC50 (DR4w4 (DRB1*0401)) [µM]	IC50 (DRB1*0405) [µM]	IC50 (DRB1*0802) [µM]	IC50 (DRB1*1201) [µM]	IC50 (DRB1*1302) [µM]	IC50 (DRB5*0101) [µM]	IC50 (DRB1*0301) [µM]	IC50 (DR1 (DRB1*0101)) [µM]
LIRMECAIMYTARQM [Peptide 90.0022]	0.738	1.48	0.158	0.473	4.12	0.433	0.815	3.06	0.201	0.241	6.47	–	–
LVEVTLGEVPAAESPD [Peptide F160.17]	–	–	–	–	–	0.976	–	–	–	–	–	4.02	–
CC(C)C[C@H](NC(=O)[C@H](CCC(=O)O)NC(=O)[C@H](CCCCN)NC(=O)[C@H](C)N)C(=O)N[C@@H](CCCCN)C(=O)N[C@@H](Cc1ccccc1)C(=O)N[C@H](C(=O)N[C@H](C(=O)N[C@@H](CC(C)C)C(=O)N[C@H](C(=O)N[C@@H](Cc1ccccc1)C(=O)N[C@@H](CCCNC(=N)N)C(=O)N[C@@H](Cc1c[nH]cn1)C(=O)NCC(=O)N[C@@H](CC(=O)O)C(=O)O)C(C)C)[C@@H](C)O)C(C)C [Peptide 68.0025]	–	–	–	–	–	–	–	–	–	–	–	> 20	–
GVYYIKDGDTTYYVQ [Peptide 90.0216]	> 20	> 20	> 20	–	1.62	2.48	7.09	5.62	5.74	–	> 20	–	1.55
HIEFTPTRTDTYACRV [Peptide 530.12]	–	–	–	> 12.5	–	–	–	–	–	–	–	30	–
DLRVVQQLLMGALTV [Peptide 85.0092]	0.754	0.057	–	–	–	–	–	–	–	–	–	> 20	–
IYIIEEDTCTMVTGK [Peptide 90.0204]	11.9	18.7	–	8.19	> 20	0.151	18.7	> 20	16.5	0.994	> 20	–	2.23
CWNYIDDNLRNALDG [Peptide 90.0041]	> 20	> 20	> 20	> 20	> 20	–	> 20	> 20	> 20	> 20	> 20	–	> 20
SEIYIIEETTCTLVA [Peptide 90.0250]	> 20	–	0.231	> 20	> 20	–	8.08	> 20	> 20	0.399	> 20	–	–
TTIYNNEEWTLRDTC [Peptide 90.0232]	3.43	10.2	> 20	> 20	> 20	> 20	> 20	> 20	> 20	1.01	> 20	–	10.6
TPEWIQRQTVLQHSF [Peptide 89.0010]	0.738	> 20	0.033	0.321	2.87	0.08	0.017	2	> 20	2.1	4.12	–	–
TVEVQFDGDICNTMH [Peptide 90.0167]	> 20	5.08	0.235	0.25	0.583	0.818	> 20	> 20	> 20	0.039	> 20	–	2.3
ELQMALKGLAQSKYN [Peptide 90.0005]	0.064	> 20	–	> 20	0.348	2.22	5.95	0.127	0.041	10	0.475	–	0.081
CTLVAGEVDYVGLYY [Peptide 90.0252]	6.72	> 20	0.02	> 20	0.981	0.776	9.02	> 20	3.63	0.714	> 20	–	> 20
MAIFGVNPTVAEGFK [Peptide 89.0081]	0.041	–	0.426	–	1.56	0.075	0.036	1.09	1.2	0.035	–	–	–
LSHVKIPVVYRLVWD [Peptide 90.0020]	–	–	0.022	–	0.469	3.95	0.525	3.57	0.1	0.329	1.34	–	0.079
DPRWPYLHSRLVVFH [Peptide 89.0113]	5.14	–	0.098	0.09	5.4	0.138	6.1	19.8	5.93	0.013	–	–	–
NGVLQGITSWGSEPC [Peptide 68.0081]	–	–	–	–	–	–	–	–	–	–	–	> 20	–
LNVLKTSNAKAAMLA [Peptide 89.0003]	0.198	–	0.509	0.02	0.197	0.0034	2.38	–	0.531	0.0089	0.768	–	0.033
KWGVLILALLRYKCG [Peptide 89.0027]	0.49	3.74	–	> 20	0.81	0.584	–	–	–	0.571	–	> 20	–
CC[C@H](C)[C@H](NC(=O)[C@@H](NC(=O)[C@@H]1CCCN1C(=O)[C@H](Cc1ccccc1)NC(=O)[C@H](Cc1ccccc1)NC(=O)[C@H](Cc1ccc(O)cc1)NC(=O)[C@H](CCC(N)=O)NC(=O)[C@H](Cc1c[nH]c2ccccc12)NC(=O)[C@H](CC(N)=O)NC(=O)CNC(=O)[C@@H](N)C(C)C)C(C)C)C(=O)N[C@@H](Cc1ccccc1)C(=O)N[C@@H](CO)C(=O)N[C@@H](CCCCN)C(=O)N[C@@H](C)C(=O)O [Peptide 58.0114]	–	–	–	–	–	–	–	–	–	–	–	0.0041	–
RLNLDNDEDKENNGD [Peptide 90.0144]	1.6	0.581	0.025	0.865	19.7	1.78	1.68	4.01	4.41	1.39	–	–	0.031
IWEVHMENESIYCPD [Peptide 90.0237]	> 20	> 20	–	> 20	5.49	3.38	> 20	> 20	> 20	1.96	> 20	–	1.78
PEWIDRLTVLQHSFN [Peptide 89.0070]	2.64	0.982	0.013	> 20	4.15	–	0.079	–	0.203	–	> 20	–	2.61
ESVFSSDEISFAGIV [Peptide 90.0195]	> 20	1.98	–	0.609	0.672	0.033	8.58	> 20	> 20	0.235	> 20	–	2.38

Reference: patent US9340577B2, “HLA binding motifs and peptides and their uses” (priority 1992, dated 2016)
